Test results reported in patent US20250304549A1, “HYDROXYAMIDE DERIVATIVE AND USE THEREOF” (SICHUAN HUIYU PHARMACEUTICAL CO., LTD., priority 2022, published 2025).
Counter-ions that a name gives are not always drawn. One block for each molecule: values may come before it.

How the values were obtained:
HDAC8 = HDAC8 (Homo sapiens (Human), UniProt Q9BY41); experiment: In vitro enzyme inhibition assay - HDAC (HDAC-Glo I/II), HDAC8; type: biochemical; settings: read-out: HDAC IC50 (nM) HDAC 8
Method in brief: (§1)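 Inhibition was measured with the HDAC-Glo I/II luminescent assay, testing compound as an 8-point, 5-fold dilution series from a 1 mM DMSO stock. Luminescence (RLU) was normalized to no-inhibitor and no-enzyme controls, and IC50 was derived by four-parameter variable-slope fitting.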

DU145 cells = experiment: In vitro cell inhibition assay - DU145 cell proliferation (CellTiter-Glo); type: cell-based; settings: Homo sapiens, DU-145, Du145 prostate cancer cell proliferation
Method in brief: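 Viability read-out was CellTiter-Glo luminescence after a 6-day, 37° C exposure of DU145 cells (1×10^3/well, 10% FBS RPMI-640) to 8 compound concentrations in 5-fold steps.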

LSD1 = LSD1 (Homo sapiens (Human), UniProt O60341); experiment: In vitro enzyme inhibition assay - LSD1 (HTRF); type: biochemical
NCI-H1417 cells = experiment: In vitro cell inhibition assay - H1417 cell proliferation (CellTiter-Glo); type: cell-based; settings: Homo sapiens, NCI-H1417, H1417 small cell lung cancer cell proliferation
Method in brief: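 Cells exposed to 8 compound concentrations (5-fold dilutions) in BEGM with 10% FBS for 7 days at 37° C., 5% CO2. Viable cells measured by CellTiter-Glo luminescence; inhibition versus no-inhibitor and no-cell controls, IC50 fitted.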

pan-HDAC = experiment: In vitro enzyme inhibition assay - HDAC (HDAC-Glo I/II), pan-HDAC; type: biochemical
Method in brief: as §1

HDAC1 = HDAC1 (Homo sapiens (Human), UniProt Q13547); experiment: In vitro enzyme inhibition assay - HDAC (HDAC-Glo I/II), HDAC1; type: biochemical; settings: read-out: HDAC IC50 (nM) HDAC 1
HDAC1, sequence (Q13547 whole entry): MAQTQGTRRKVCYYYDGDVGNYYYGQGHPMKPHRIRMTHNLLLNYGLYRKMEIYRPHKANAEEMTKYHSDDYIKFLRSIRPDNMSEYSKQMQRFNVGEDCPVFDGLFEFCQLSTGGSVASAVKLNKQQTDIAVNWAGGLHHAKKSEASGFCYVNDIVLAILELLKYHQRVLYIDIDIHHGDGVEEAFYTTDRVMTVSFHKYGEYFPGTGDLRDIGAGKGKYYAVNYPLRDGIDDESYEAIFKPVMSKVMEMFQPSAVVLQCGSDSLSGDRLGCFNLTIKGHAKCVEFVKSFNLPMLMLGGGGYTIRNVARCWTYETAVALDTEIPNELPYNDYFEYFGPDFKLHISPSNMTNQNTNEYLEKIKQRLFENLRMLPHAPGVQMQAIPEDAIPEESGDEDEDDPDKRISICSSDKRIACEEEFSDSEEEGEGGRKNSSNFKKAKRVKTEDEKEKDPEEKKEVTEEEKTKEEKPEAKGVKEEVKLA
Method in brief: as §1

NCI-H69 cells = experiment: In vitro cell inhibition assay - NCI-H69 cell proliferation (CellTiter-Glo); type: cell-based; settings: Homo sapiens, NCI-H69, H69 small cell lung cancer cell proliferation
Method in brief: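 CellTiter-Glo luminescence measured viability after a 7-day, 37° C. exposure of NCI-H69 cells (1×10^3/well) to an 8-point, 5-fold dilution series in RPMI-640/20% FBS. Inhibition was normalised to untreated and cell-free wells and IC50 derived by curve fitting.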

NCI-H526 cells = experiment: In vitro cell inhibition assay - NCI-H526 cell proliferation (CellTiter-Glo); type: cell-based; settings: Homo sapiens, NCI-H526, 120 h, H526 small cell lung cancer cell proliferation, 5 days
Method in brief: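 NCI-H526 cells plated at 1×10^3 per well overnight, then treated with 8 concentrations (5-fold dilutions) in RPMI-640 with 10% FBS for 5 days at 37° C., 5% CO2. Viable cells quantified by CellTiter-Glo luminescence; IC50 fitted from inhibition rates relative to no-inhibitor and no-cell controls.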

HDAC8, sequence (Q9BY41 whole entry): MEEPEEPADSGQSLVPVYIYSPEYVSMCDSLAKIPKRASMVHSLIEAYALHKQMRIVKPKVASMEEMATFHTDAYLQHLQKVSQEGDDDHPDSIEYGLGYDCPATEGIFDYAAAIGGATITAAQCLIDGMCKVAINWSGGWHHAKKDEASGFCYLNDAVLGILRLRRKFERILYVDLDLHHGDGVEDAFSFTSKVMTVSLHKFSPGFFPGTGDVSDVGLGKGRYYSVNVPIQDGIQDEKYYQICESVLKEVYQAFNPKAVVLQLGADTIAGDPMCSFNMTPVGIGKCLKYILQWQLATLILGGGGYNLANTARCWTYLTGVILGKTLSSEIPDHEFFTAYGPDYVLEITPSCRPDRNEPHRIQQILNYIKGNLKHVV

Structure (SMILES): COc1ccc(-c2c(OC)cc(N3CCC(N)CC3)nc2-c2ccc(C#N)c(F)c2)cc1OCCNCc1ccc(/C=C/C(=O)NO)cc1 [Example 30, (E)-3-(4-((2-(5-(6-(4-Aminopiperidin-1-yl)-2-(4-cyano-3-fluorophenyl)-4-methoxypyridin-3-yl)-2-methoxyphenoxy)ethyl)amino)methyl)phenyl)-N-hydroxyacrylamide hydrochloride]
- IC50 (HDAC8): 65.8 nM
- IC50 (DU145 cells): 2830 nM
- IC50 (LSD1): 4.25 nM
- IC50 (NCI-H1417 cells): 206 nM
- IC50 (pan-HDAC): 18.1 nM
- IC50 (HDAC1): 39.9 nM
- IC50 (NCI-H69 cells): 1500 nM

Structure (SMILES): COc1ccc(-c2cnc(N3CCC(NCc4ccc(/C=C/C(=O)NO)cc4)CC3)c(C#N)c2-c2ccc(C#N)c(F)c2)cc1F [Example 40, (E)-3-(4-(((1-(3-Cyano-4-(4-cyano-3-fluorophenyl)-5-(3-fluoro-4-methoxyphenyl)pyridin-2-yl)piperidin-4-yl)amino)methyl)phenyl)-N-hydroxyacrylamide hydrochloride]
- IC50 (HDAC8): 392 nM
- IC50 (DU145 cells): 1640 nM
- IC50 (LSD1): 8.25 nM
- IC50 (NCI-H1417 cells): 65 nM
- IC50 (pan-HDAC): 54.4 nM
- IC50 (HDAC1): 108 nM
- IC50 (NCI-H69 cells): 194 nM

Structure (SMILES): Cc1c(N2CCC(NCc3ccc(/C=C/C(=O)NO)cc3)CC2)ncc(-c2ccc(OCC(C)(C)O)c(O)c2)c1-c1ccc(C#N)c(F)c1 [Example 207, (E)-3-(4-(((1-(4-(4-Cyano-3-fluorophenyl)-5-(3-hydroxy-4-(2-hydroxy-2-methylpropoxy)phenyl)-3-methylpyridin-2-yl)piperidin-4-yl)amino)methyl)phenyl)-N-hydroxyacrylamide hydrochloride]
- IC50 (HDAC8): 170 nM
- IC50 (LSD1): 6.65 nM
- IC50 (NCI-H526 cells): 26.6 nM
- IC50 (NCI-H1417 cells): 9.5 nM
- IC50 (pan-HDAC): 12.4 nM
- IC50 (HDAC1): 2.51 nM
- IC50 (NCI-H69 cells): 33.6 nM

Structure (SMILES): COc1ccc(-c2cnc(N3CCC(NCc4ccc(/C=C/C(=O)NO)cc4)CC3)c(CC#N)c2-c2ccc(C#N)c(F)c2)cc1O [Example 233, (E)-3-(4-(((1-(4-(4-cyano-3-fluorophenyl)-3-(cyanomethyl)-5-(3-hydroxy-4-methoxyphenyl)pyridin-2-yl)piperidin-4-yl)amino)methyl)phenyl)-N-hydroxyacrylamide formate]
- IC50 (HDAC8): 42.1 nM
- IC50 (LSD1): 1.76 nM
- IC50 (NCI-H526 cells): 8.35 nM
- IC50 (NCI-H1417 cells): 10.2 nM
- IC50 (pan-HDAC): 2.23 nM
- IC50 (HDAC1): 0.43 nM
- IC50 (NCI-H69 cells): 3.81 nM

More lines, in order of falling IC50 (HDAC8), values ahead:

- IC50 (HDAC8): 456 nM
- IC50 (LSD1): 1.13 nM
- IC50 (NCI-H526 cells): 5.86 nM
- IC50 (NCI-H1417 cells): 3.53 nM
- IC50 (pan-HDAC): 2.5 nM
- IC50 (HDAC1): 4.44 nM
- IC50 (NCI-H69 cells): 15.1 nM
Structure (SMILES): COc1ccc(-c2cnc(N3CCC(NC(C)c4ccc(/C=C/C(=O)NO)cc4)CC3)c(C#N)c2-c2ccc(C#N)c(F)c2)cc1O (stereo not shown) [Example 210, (E)-3-(4-(1-((1-(3-Cyano-4-(4-cyano-3-fluorophenyl)-5-(3-hydroxy-4-methoxyphenyl)pyridin-2-yl)piperidin-4-yl)amino)ethyl)phenyl)-N-hydroxyacrylamide formate]

- IC50 (HDAC8): 125 nM
- IC50 (DU145 cells): 1050 nM
- IC50 (LSD1): 0.62 nM
- IC50 (NCI-H1417 cells): 0.8 nM
- IC50 (pan-HDAC): 34.4 nM
- IC50 (HDAC1): 58.2 nM
- IC50 (NCI-H69 cells): 248 nM
Structure (SMILES): COc1ccc(-c2c(OC)cc(N3CCC(NCc4ccc(/C=C/C(=O)NO)cc4)CC3)nc2-c2ccc(C#N)c(F)c2)cc1O [Example 54, (E)-3-(4-(((1-(6-(4-cyano-3-fluorophenyl)-5-(3-hydroxy-4-methoxyphenyl)-4-methoxypyridin-2-yl)piperidin-4-yl)amino)methyl)phenyl)-N-hydroxyacrylamide formate]

- IC50 (HDAC8): 17.2 nM
- IC50 (LSD1): 0.73 nM
- IC50 (NCI-H526 cells): 3.82 nM
- IC50 (NCI-H1417 cells): 2.2 nM
- IC50 (pan-HDAC): 1.13 nM
- IC50 (HDAC1): 1.74 nM
- IC50 (NCI-H69 cells): 4.62 nM
Structure (SMILES): COc1ccc(-c2cnc(N3CCC(NCc4ccc(/C=C/C(=O)NO)cc4)CC3)c(C#N)c2-c2ccc(C#N)nc2)cc1O [Example 208, (E)-3-(4-(((1-(3′,6-Dicyano-5′-(3-hydroxy-4-methoxyphenyl)-[3,4′-bipyridin]-2′-yl)piperidin-4-yl)amino)methyl)phenyl)-N-hydroxyacrylamide]
